Reference: patent publication US20250114359A1, “METHODS FOR […] G[…]/OR HEXOKINASE” (UNIVERSITY OF SOUTH CAROLINA, priority 2023, published 2025)
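Further: compounds supplied as 10 mM DMSO stocks (100 µL format), with a non-inhibitory compound run alongside for comparison.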

What follows are compounds tested against Trypanosoma cruzi glucokinase (TcGlcK) (Trypanosoma cruzi, UniProt Q4E4E1) (assay: Determination of Ki values by type 1 and type 2 Dixon plots). Conditions: not given.
Chain of Trypanosoma cruzi glucokinase (TcGlcK) (Q4E4E1 1-376): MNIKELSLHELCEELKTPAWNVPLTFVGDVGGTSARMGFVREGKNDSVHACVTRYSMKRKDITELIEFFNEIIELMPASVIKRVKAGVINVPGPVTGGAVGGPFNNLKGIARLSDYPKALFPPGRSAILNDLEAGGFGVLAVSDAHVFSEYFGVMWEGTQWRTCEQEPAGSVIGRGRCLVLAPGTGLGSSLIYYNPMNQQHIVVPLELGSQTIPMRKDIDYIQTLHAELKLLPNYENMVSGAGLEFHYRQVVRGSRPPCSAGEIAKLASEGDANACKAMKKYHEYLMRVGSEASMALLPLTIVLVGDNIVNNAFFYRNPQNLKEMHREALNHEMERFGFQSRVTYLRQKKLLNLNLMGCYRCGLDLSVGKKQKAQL
Format: biochemical
In the case of `Cc1cc(C=O)c(O)c(C=O)c1` [Inhibitor 44], the Ki is reported as 99.1 µM.
`Cc1cc2c(C(C)C)c(O)c(O)c(/C=N/c3ccc(C(O)C(O)CO)cc3)c2c(O)c1-c1c(C)cc2c(C(C)C)c(O)c(O)c(/C=N/c3ccc(C(O)C(O)CO)cc3)c2c1O` (stereo not shown) [Inhibitor 48] gave a Ki of 274 µM.
`Cc1cc2c(C(C)C)c(O)c(O)c(/C=N/CC34CC5CC(C)(CC(C)(C5)C3)C4)c2c(O)c1-c1c(C)cc2c(C(C)C)c(O)c(O)c(/C=N/C34CC5CC(C)(CC(C)(C5)C3)C4)c2c1O` [Inhibitor 50] showed a Ki of 51.3 µM.
For `COc1cc(/C=N/c2c(C)n(C)n(-c3ccccc3)c2=O)ccc1O` [Inhibitor 62], the Ki was 19.9 µM.
`O=C1NC(=S)S/C1=C/c1ccc(O)cc1` [Inhibitor 66] gave a Ki of 14.7 µM.
In the case of `CN(C)c1ccc(/C=C2/SC(=S)NC2=O)cc1` [Inhibitor 68], the Ki is reported as 0.27 µM.
`COc1ccc2ccccc2c1/C=C1\SC(=S)NC1=O` [Inhibitor 69] showed a Ki of 12.9 µM.
For `Cc1cc2c(c(O)c1-c1c(C)cc3c(c1O)/C(=C/NC(C)CCc1ccco1)C(=O)C(O)=C3C(C)C)/C(=C/NC(C)CCc1ccco1)C(=O)C(O)=C2C(C)C` (stereo not shown) [Inhibitor 73], the Ki was 2.03 µM.
In the case of `CCCCCC1CCC(=O)N1CCN/C=C1\C(=O)C(O)=C(C(C)C)c2cc(C)c(-c3c(C)cc4c(c3O)/C(=C/NCCN3C(=O)CCC3CCCCC)C(=O)C(O)=C4C(C)C)c(O)c21` (stereo not shown) [Inhibitor 75], the Ki is reported as 560 µM.

Same assay, conditions: type 1 and type 2 Dixon plots; comparison compound
`Cc1cc2c(C(C)C)c(O)c(O)c(/C=N/NC(N)=S)c2c(O)c1-c1c(O)cc2c(/C=N/NC(N)=S)c(O)c(O)c(C(C)C)c2c1C` [comparative compound, reference compound] was tested, and the “inhibition (Dixon plots)” value was “does not exhibit inhibition”.
